Assays:
[1] = target: TPO (produced in insect cells, RSR Ltd) (Homo sapiens (Human), UniProt P07202); assay: TPO activity (IC50), luminol chemiluminescence assay; type: biochemical; details: PBS pH7.4, luminol 100 μM, H2O2 50 μM, chemiluminescence recorded after 15 minutes
Experimental: (§1) The experiments were performed in phosphate-buffered saline (PBS), pH7.4. A 10 mM luminol (A4695, Sigma Aldrich, St Louis, MO, USA) stock was prepared in distilled water and further diluted in PBS to a final concentration of 100 μM. H2O2 was prepared as 1 mM stock in PBS, yielding a final concentration of 50 μM after addition into the assay. The compounds were serially diluted in DMSO in a separate plate as a 100× stock solution, and MPO (purified from HL60 cells) and TPO (produced in insect cells, RSR Ltd, Cardiff, UK), were diluted to yield a final concentration of approximately 14 and 150 ng/mL, generating 5600 and 9300 light counts per seconds (LCPS) upon incubation with luminol.
(§2) The experiment was run by pipetting 2 μL 100× stock solution of the compound and 200 μL diluted enzyme in PBS into wells in a 96-well Optiplate (6005290, Perkin Elmer/Thermo Fischer, Waltham, MS, USA), followed by addition of 10 μL H2O2 containing PBS. Chemiluminescence measurement (Perkin Elmer Wallac Microbeta Trilux 1450-029 (12-detector), Turkuu, Finland) was started directly and recorded after 2, 10 and 15 minutes.

[2] = target: MPO (purified from HL60 cells) (Homo sapiens (Human), UniProt P05164); assay: MPO activity (IC50), luminol chemiluminescence assay; type: biochemical; details: PBS pH7.4, luminol 100 μM, H2O2 50 μM, chemiluminescence recorded after 15 minutes
Chain of MPO (purified from HL60 cells) (P05164 49-745): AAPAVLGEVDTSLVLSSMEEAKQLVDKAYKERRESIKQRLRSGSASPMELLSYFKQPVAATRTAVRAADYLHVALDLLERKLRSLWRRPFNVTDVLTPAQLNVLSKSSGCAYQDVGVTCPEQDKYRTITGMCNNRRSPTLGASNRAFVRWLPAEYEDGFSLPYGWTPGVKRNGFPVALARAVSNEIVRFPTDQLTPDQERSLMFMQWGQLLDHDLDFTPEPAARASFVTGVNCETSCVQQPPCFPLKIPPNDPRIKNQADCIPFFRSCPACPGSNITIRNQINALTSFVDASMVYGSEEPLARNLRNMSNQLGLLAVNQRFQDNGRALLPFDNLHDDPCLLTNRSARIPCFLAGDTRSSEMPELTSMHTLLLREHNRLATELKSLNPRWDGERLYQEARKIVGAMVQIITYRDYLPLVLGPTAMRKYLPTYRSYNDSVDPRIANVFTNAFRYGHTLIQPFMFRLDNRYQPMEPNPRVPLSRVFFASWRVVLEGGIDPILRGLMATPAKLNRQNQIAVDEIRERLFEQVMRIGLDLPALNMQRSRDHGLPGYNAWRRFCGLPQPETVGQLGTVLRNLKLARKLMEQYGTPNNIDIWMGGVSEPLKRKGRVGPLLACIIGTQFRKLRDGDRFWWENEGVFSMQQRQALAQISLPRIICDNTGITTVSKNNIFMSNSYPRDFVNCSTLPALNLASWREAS
Experimental: as §1, §2

Chain of TPO (produced in insect cells, RSR Ltd) (P07202 19-933): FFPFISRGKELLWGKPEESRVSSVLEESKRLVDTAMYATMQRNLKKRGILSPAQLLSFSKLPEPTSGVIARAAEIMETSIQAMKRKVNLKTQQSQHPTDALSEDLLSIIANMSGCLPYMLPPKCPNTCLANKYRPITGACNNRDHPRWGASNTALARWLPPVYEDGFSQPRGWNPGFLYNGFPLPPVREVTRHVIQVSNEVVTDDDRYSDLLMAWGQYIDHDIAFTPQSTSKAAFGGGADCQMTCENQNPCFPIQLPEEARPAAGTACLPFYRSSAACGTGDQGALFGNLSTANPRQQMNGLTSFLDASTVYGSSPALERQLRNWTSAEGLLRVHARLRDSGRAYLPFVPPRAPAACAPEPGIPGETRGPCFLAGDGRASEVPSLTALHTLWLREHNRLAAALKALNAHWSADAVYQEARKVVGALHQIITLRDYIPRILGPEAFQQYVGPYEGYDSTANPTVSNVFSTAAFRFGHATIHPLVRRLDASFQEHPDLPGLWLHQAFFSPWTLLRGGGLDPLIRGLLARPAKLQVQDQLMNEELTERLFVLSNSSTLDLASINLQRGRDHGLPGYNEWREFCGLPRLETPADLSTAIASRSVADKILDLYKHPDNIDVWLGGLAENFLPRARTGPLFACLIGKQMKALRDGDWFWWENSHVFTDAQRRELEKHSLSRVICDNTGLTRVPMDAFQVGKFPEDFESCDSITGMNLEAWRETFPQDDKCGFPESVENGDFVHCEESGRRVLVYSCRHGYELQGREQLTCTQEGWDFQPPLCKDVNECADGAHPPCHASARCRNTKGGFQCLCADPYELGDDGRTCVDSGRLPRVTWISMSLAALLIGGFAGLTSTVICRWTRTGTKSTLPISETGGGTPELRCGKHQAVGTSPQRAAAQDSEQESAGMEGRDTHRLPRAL

| SMILES | IC50 [1] [nM] | IC50 [2] [nM] |
| --- | --- | --- |
| O=c1[nH]c(=S)n(Cc2ccc(Cl)cc2[C@H]2CCCCN2)c2cc[nH]c12 (single isomer, unassigned) [Example 2a] | 1040 | 12.2 |
| O=c1[nH]c(=S)n(Cc2ccc(Cl)cc2[C@H]2CCCCCN2)c2nc[nH]c12 [Example 7, (R)-3-(2-(Azepan-2-yl)-4-chlorobenzyl)-2-thioxo-1,2,3,7-tetrahydro-6H-purin-6-one] | 610 | 7.1 |
| O=c1[nH]c(=S)n(Cc2ccc(Cl)cc2[C@H]2COCCN2)c2cc[nH]c12 (single isomer, unassigned) [Example 4b] | 810 | 127 |
| O=c1[nH]c(=S)n(Cc2ncccc2[C@H]2C[C@@H](C(F)(F)F)CCN2)c2cc[nH]c12 (racemic) [Example 21, rac-2-Thioxo-1-((3-((2R,4S)-4-(trifluoromethyl)piperidin-2-yl)pyridin-2-yl)methyl)-1,2,3,5-tetrahydro-4H-pyrrolo[3,2-d]pyrimidin-4-one] | 540 | 5.7 |
| O=c1[nH]c(=S)n(Cc2ccccc2[C@H]2C[C@H](C(F)(F)F)CCN2)c2cc[nH]c12 (stereo in doubt) [Example 17a, rel-2-Thioxo-1-(2-((2R,4R)-4-(trifluoromethyl)piperidin-2-yl)benzyl)-1,2,3,5-tetrahydro-4H-pyrrolo[3,2-d]pyrimidin-4-one] | 760 | 16.5 |
| O=c1[nH]c(=S)n(Cc2ccccc2[C@H]2CC(F)(F)CCN2)c2cc[nH]c12 (single isomer, unassigned) [Example 12b] | 320 | 2.7 |
